Data: ChEMBL document CHEMBL1147156, “Structure-based design and synthesis of N(omega)-nitro-L-arginine-containing peptidomimetics as selective inhibitors of neuronal nitric oxide synthase. Displacement of the heme structural water” (J Med Chem, 2007)
pKi: −log10 of the molar value.

Columns and labels:
[1] = Inhibition of bovine recombinant neuronal NOS by hemoglobin capture assay; design: species or system Bos taurus
[2] = target: T1, Nitric oxide synthase, inducible (Mus musculus, UniProt P29477); assay: Inhibition of mouse recombinant inducible NOS by hemoglobin capture assay
T1 sequence (P29477 whole entry): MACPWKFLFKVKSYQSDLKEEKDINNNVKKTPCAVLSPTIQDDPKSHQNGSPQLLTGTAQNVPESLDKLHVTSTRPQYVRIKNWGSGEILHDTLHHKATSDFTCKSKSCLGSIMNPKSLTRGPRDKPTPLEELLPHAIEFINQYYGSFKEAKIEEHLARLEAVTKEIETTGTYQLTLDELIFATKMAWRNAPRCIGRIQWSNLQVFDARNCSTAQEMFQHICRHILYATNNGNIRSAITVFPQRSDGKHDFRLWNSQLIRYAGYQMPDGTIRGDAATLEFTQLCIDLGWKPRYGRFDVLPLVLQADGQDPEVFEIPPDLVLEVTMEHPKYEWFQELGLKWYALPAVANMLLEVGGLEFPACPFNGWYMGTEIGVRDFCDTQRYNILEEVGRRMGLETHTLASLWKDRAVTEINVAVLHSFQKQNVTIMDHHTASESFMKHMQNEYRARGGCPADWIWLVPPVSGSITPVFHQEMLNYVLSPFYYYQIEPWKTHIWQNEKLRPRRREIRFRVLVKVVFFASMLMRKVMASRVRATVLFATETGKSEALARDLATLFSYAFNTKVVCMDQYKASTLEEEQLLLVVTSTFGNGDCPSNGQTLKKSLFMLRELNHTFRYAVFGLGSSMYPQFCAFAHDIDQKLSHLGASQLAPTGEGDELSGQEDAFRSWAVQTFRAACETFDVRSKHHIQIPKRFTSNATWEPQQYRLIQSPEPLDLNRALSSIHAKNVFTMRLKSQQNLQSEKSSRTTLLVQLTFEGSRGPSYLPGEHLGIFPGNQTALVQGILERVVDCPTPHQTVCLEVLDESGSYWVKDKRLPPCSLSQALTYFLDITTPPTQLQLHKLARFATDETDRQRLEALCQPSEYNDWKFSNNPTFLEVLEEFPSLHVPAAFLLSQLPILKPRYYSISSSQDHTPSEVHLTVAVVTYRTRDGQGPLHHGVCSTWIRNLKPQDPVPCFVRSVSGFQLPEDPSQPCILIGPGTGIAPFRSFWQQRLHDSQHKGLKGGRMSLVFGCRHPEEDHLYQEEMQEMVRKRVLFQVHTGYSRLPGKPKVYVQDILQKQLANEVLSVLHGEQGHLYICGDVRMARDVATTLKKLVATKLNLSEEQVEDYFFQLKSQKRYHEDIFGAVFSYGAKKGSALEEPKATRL

[3] = target: T2, Nitric oxide synthase 3 (Bos taurus, UniProt P29473); assay: Inhibition of bovine recombinant endothelial NOS by hemoglobin capture assay
T2 sequence (P29473 whole entry): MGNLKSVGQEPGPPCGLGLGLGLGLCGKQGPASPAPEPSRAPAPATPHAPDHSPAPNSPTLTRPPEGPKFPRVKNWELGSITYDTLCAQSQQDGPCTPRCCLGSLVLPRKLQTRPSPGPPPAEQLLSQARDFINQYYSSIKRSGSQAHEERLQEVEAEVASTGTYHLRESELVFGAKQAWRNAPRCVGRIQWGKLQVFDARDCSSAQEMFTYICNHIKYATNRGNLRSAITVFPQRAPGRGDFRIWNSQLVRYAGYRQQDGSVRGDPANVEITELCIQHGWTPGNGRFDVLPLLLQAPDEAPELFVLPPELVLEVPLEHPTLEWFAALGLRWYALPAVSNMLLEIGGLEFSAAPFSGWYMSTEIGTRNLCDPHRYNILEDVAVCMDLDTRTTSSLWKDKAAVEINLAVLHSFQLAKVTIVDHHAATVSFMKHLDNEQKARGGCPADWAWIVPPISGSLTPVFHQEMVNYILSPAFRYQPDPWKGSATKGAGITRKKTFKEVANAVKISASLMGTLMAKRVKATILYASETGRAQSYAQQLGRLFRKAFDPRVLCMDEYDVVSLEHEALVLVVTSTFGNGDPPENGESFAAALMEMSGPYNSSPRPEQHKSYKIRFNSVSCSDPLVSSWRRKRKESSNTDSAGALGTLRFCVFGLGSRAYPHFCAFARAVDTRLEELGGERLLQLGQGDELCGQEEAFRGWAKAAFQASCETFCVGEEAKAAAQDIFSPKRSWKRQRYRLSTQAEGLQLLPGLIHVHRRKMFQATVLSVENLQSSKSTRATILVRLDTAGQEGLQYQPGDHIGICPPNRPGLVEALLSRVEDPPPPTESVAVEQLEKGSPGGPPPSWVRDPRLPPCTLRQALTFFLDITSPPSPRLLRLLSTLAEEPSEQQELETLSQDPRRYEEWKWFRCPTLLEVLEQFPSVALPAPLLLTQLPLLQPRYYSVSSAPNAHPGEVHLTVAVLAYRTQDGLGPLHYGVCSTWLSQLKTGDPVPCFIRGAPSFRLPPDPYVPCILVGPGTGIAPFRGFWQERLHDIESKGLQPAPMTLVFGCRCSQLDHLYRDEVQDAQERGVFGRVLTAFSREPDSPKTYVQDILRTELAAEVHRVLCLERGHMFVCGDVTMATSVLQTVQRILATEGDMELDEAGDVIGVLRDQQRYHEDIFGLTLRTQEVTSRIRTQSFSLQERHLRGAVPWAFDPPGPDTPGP

N=C(NCCC[C@H](N)CN(O)CCN)N[N+](=O)[O-]
pKi [1]: 6.92
pKi [2]: 4.80
pKi [3]: 4.14

NC(=O)[C@@H]1C[C@@H](NC(=O)[C@@H](N)CCC/N=C(\N)N[N+](=O)[O-])CN1
pKi [1]: 6.48

N=C(NCCC[C@H](N)C(=O)O)N[N+](=O)[O-] [NITROARGININE]
pKi [2]: 5.37

N=C(NCCC[C@H](N)CN(N)CCN)N[N+](=O)[O-]
pKi [1]: 6.25
pKi [2]: 4.43
pKi [3]: 3.99

N=C(NCCC[C@H](N)C(=O)N(O)[C@H]1CN[C@H](C(N)=O)C1)N[N+](=O)[O-]
pKi [1]: 6.51
pKi [2]: 4.80
pKi [3]: 4.46
